This assay addresses T1, P2Y12 receptor (Homo sapiens, UniProt Q9H244).
T1 construct: expressed in transfected cells; host or cells: CHO cells (membrane preparation)
Kind of assay: Functional inhibition of 2-Me-S-ADP induced P2Y12 signalling (35S-GTPγS binding, cell membranes). It counts as biochemical. The conditions noted are these: 35S-GTPγS assay, membranes, EC80 concentration of 2-methyl-thio-adenosine diphosphate, 30° C. for 45 min; read-out: GTPγS (IC50 μM). On the procedure: Functional inhibition of- the P2Y12 receptor can be measured by in vitro assays using cell membranes from P2Y12 transfected CHO-cells, the methodology is indicated below.
Functional inhibition of 2-Me-S-ADP induced P2Y12 signalling: 5 μg of membranes were diluted in 200 μl of 200 mM NaCl, 1 mM MgCl2, 50 mM HEPES (pH 7.4), 0.01% BSA, 30 μg/ml saponin and 10 μM GDP. To this was added an EC80 concentration of agonist (2-methyl-thio-adenosine diphosphate), the required concentration of test compound and 0.1 μCi ^35S-GTPγS. The reaction was allowed to proceed at 30° C. for 45 min. Samples were then transferred on to GF/B filters using a cell harvester and washed with wash buffer (50 mM Tris (pH 7.4), 5 mM MgCl2, 50 mM NaCl). Filters were then covered with scintilant and counted for the amount of ^35S-GTPγS retained by the filter. Maximum activity was that determined in the presence of the agonist and minimum activity in the absence of the agonist following subtraction of the value determined for non-specific activity. The effect of compounds at various concentrations was plotted according to the equation
y=A+((B−A)/(1+((C/x)̂D)))
and IC50 estimated where A is the bottom plateau of the curve i.e. the final minimum y value B is the top of the plateau of the curve i.e. the final maximum y value C is the x value at the middle of the curve. This represents the log EC50 value when A+B=100 D is the slope factor. x is the original known x values. Y is the original known y values.
T1 sequence (Q9H244 whole entry): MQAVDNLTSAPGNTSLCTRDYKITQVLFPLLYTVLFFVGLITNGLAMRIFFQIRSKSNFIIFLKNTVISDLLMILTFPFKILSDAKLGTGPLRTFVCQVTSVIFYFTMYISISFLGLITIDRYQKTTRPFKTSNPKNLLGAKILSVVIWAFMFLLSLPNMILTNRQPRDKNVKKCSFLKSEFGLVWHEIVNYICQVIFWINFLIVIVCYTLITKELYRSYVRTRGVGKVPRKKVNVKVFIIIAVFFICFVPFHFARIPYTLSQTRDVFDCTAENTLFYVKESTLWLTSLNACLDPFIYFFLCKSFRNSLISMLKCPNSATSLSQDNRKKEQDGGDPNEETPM
`CCOC(=O)c1cc(C#N)c(N2CC(C(=O)NS(=O)(=O)Cc3ccccc3)C2)nc1CSCC` [Example 30, Ethyl 6-{3-[(benzylsulfonyl)carbamoyl]azetidin-1-yl}-5-cyano-2-[(ethylthio)methyl]nicotinate]: the IC50 (commonly the midpoint of a concentration-inhibition curve) was determined as 0.106 µM.

Regarding `CCOC(=O)c1cc(C#N)c(N2CC(C(=O)NS(=O)(=O)Cc3ccccc3)C2)nc1CSCCO` [Example 31, Ethyl 6-{3-[(benzylsulfonyl)carbamoyl]azetidin-1-yl}-5-cyano-2-{[(2-hydroxyethyl)thio]methyl}nicotinate], the IC50 is 0.066 µM.

As for `CCOC(=O)c1cc(C#N)c(N2CC(C(=O)NS(=O)(=O)Cc3ccccc3)C2)nc1CSCCNC(C)=O` [Example 32, Ethyl 2-{[(2-acetamidoethyl)thio]methyl}-6-{3-[(benzylsulfonyl)carbamoyl]azetidin-1-yl}-5-cyanonicotinate], the IC50 is 0.081 µM.

For `CCOC(=O)c1cc(C#N)c(N2CCC(C(=O)NS(=O)(=O)Cc3ccccc3)CC2)nc1CN1CCCC1=O` [Example 33, Ethyl 6-{4-[(benzylsulfonyl)carbamoyl]piperidin-1-yl}-5-cyano-2-[(2-oxopyrrolidin-1-yl)methyl]nicotinate], the IC50 was 0.0097 µM.

In the case of `CC(C)OC(=O)c1cc(C#N)c(N2CCC(C(=O)NS(=O)(=O)Cc3ccccc3)CC2)nc1CN1CCCC1=O` [Example 34, Isopropyl 6-{4-[(benzylsulfonyl)carbamoyl]piperidin-1-yl}-5-cyano-2-[(2-oxopyrrolidin-1-yl)methyl]nicotinate], the IC50 came out at 0.033 µM.

Regarding `CCOC(=O)c1cc(C#N)c(N2CCC(C(=O)NS(=O)(=O)Cc3ccc(C(F)(F)F)cc3)CC2)nc1CN1CCCC1=O` [Example 35, Ethyl 5-cyano-2-[(2-oxopyrrolidin-1-yl)methyl]-6-[4-({[4-(trifluoromethyl)benzyl]sulfonyl}carbamoyl)piperidin-1-yl]nicotinate], the IC50 turned out to be 0.0097 µM.

In the case of `CCOC(=O)c1cc(C#N)c(N2CCC(C(=O)NS(=O)(=O)CC3CCCC3)CC2)nc1CN1CCCC1=O` [Example 36, Ethyl 5-cyano-6-(4-{[(cyclopentylmethyl)sulfonyl]carbamoyl}piperidin-1-yl)-2-[(2-oxopyrrolidin-1-yl)methyl]nicotinate], the IC50 is 0.017 µM.

In the case of `CCOC(=O)c1cc(C#N)c(N2CCC(C(=O)NS(=O)(=O)CC3CCC(C)CC3)CC2)nc1CN1CCCC1=O` (centres unmarked) [Example 37, Ethyl 5-cyano-6-[4-({[(4-methylcyclohexyl)methyl]sulfonyl}carbamoyl)piperidin-1-yl]-2-[(2-oxopyrrolidin-1-yl)methyl]nicotinate], the IC50 is 0.03 µM.

Take `CCOC(=O)c1cc(C#N)c(N2CCC(C(=O)NS(=O)(=O)Cc3ccc(F)cc3F)CC2)nc1CN1CCCC1=O` [Example 38, Ethyl 5-cyano-6-(4-{[(2,4-difluorobenzyl)sulfonyl]carbamoyl}piperidin-1-yl)-2-[(2-oxopyrrolidin-1-yl)methyl]nicotinate]: the IC50 worked out at 0.0033 µM.

`CCOC(=O)c1cc(C#N)c(N2CCC(C(=O)NS(=O)(=O)Cc3ccc(Cl)cc3)CC2)nc1CN1CCCC1=O` [Example 39, Ethyl 6-(4-{[(4-chlorobenzyl)sulfonyl]carbamoyl}piperidin-1-yl)-5-cyano-2-[(2-oxopyrrolidin-1-yl)methyl]nicotinate]: the IC50 is 0.011 µM.

As to `CCOC(=O)c1cc(C#N)c(N2CCC(C(=O)NS(=O)(=O)Cc3ccc(F)cc3)CC2)nc1CN1CCCC1=O` [Example 40, Ethyl 5-cyano-6-(4-{[(4-fluorobenzyl)sulfonyl]carbamoyl}piperidin-1-yl)-2-[(2-oxopyrrolidin-1-yl)methyl]nicotinate], the IC50 is 0.025 µM.

In the case of `CCOC(=O)c1cc(C#N)c(N2CCC(C(=O)NS(=O)(=O)Cc3ccc(Cl)cc3Cl)CC2)nc1CN1CCCC1=O` [Example 41, Ethyl 5-cyano-6-(4-{[(2,4-dichlorobenzyl)sulfonyl]carbamoyl}piperidin-1-yl)-2-[(2-oxopyrrolidin-1-yl)methyl]nicotinate], the IC50 was 0.016 µM.

On to `CCOC(=O)c1cc(C#N)c(N2CCC(C(=O)NS(=O)(=O)Cc3ccc(C)cc3)CC2)nc1CN1CCCC1=O` [Example 42, Ethyl 5-cyano-6-(4-{[(4-methylbenzyl)sulfonyl]carbamoyl}piperidin-1-yl)-2-[(2-oxopyrrolidin-1-yl)methyl]nicotinate], for which the IC50 is 0.012 µM.

Take `CCOC(=O)c1cc(C#N)c(N2CCC(C(=O)NS(=O)(=O)Cc3ccc(F)cc3Cl)CC2)nc1CN1CCCC1=O` [Example 43, Ethyl 6-(4-{[(2-chloro-4-fluorobenzyl)sulfonyl]carbamoyl}piperidin-1-yl)-5-cyano-2-[(2-oxopyrrolidin-1-yl)methyl]nicotinate]: the IC50 was found to be 0.018 µM.

On to `CCOC(=O)c1cc(C#N)c(N2CCC(C(=O)NS(=O)(=O)Cc3ccc(Cl)cc3F)CC2)nc1CN1CCCC1=O` [Example 44, Ethyl 6-(4-{[(4-chloro-2-fluorobenzyl)sulfonyl]carbamoyl}piperidin-1-yl)-5-cyano-2-[(2-oxopyrrolidin-1-yl)methyl]nicotinate], for which the IC50 was 0.01 µM.

With `Cc1ccc(CS(=O)(=O)NC(=O)C2CCN(c3nc(CN4CCCC4=O)c(C(=O)OC(C)C)cc3C#N)CC2)cc1` [Example 45, Isopropyl 5-cyano-6-(4-{[(4-methylbenzyl)sulfonyl]carbamoyl}piperidin-1-yl)-2-[(2-oxopyrrolidin-1-yl)methyl]nicotinate], the IC50 is 0.019 µM.

`CC(C)OC(=O)c1cc(C#N)c(N2CCC(C(=O)NS(=O)(=O)Cc3ccc(F)cc3F)CC2)nc1CN1CCCC1=O` [Example 46, Isopropyl 5-cyano-6-(4-{[(2,4-difluorobenzyl)sulfonyl]carbamoyl}piperidin-1-yl)-2-[(2-oxopyrrolidin-1-yl)methyl]nicotinate]: the IC50 stood at 0.021 µM.

As to `CC(C)OC(=O)c1cc(C#N)c(N2CCC(C(=O)NS(=O)(=O)CC3CCCC3)CC2)nc1CN1CCCC1=O` [Example 47, Isopropyl 5-cyano-6-(4-{[(cyclopentylmethyl)sulfonyl]carbamoyl}piperidin-1-yl)-2-[(2-oxopyrrolidin-1-yl)methyl]nicotinate], the IC50 came to 0.065 µM.

As to `CC(C)OC(=O)c1cc(C#N)c(N2CCC(C(=O)NS(=O)(=O)Cc3ccc(Cl)cc3)CC2)nc1CN1CCCC1=O` [Example 48, Isopropyl 6-(4-{[(4-chlorobenzyl)sulfonyl]carbamoyl}piperidin-1-yl)-5-cyano-2-[(2-oxopyrrolidin-1-yl)methyl]nicotinate], the half-inhibitory concentration (IC50) was determined as 0.012 µM.

`CC(C)OC(=O)c1cc(C#N)c(N2CCC(C(=O)NS(=O)(=O)Cc3ccc(F)cc3Cl)CC2)nc1CN1CCCC1=O` [Example 49, Isopropyl 6-(4-{[(2-chloro-4-fluorobenzyl)sulfonyl]carbamoyl}piperidin-1-yl)-5-cyano-2-[(2-oxopyrrolidin-1-yl)methyl]nicotinate]: the IC50 turned out to be 0.066 µM.

As for `CC(C)OC(=O)c1cc(C#N)c(N2CCC(C(=O)NS(=O)(=O)Cc3ccc(C(F)(F)F)cc3)CC2)nc1CN1CCCC1=O` [Example 50, Isopropyl 5-cyano-2-[(2-oxopyrrolidin-1-yl)methyl]-6-[4-({[4-(trifluoromethyl)benzyl]sulfonyl}carbamoyl)piperidin-1-yl]nicotinate], the IC50 worked out at 0.02 µM.

As to `CC(C)OC(=O)c1cc(C#N)c(N2CCC(C(=O)NS(=O)(=O)Cc3ccc(F)cc3)CC2)nc1CN1CCCC1=O` [Example 51, Isopropyl 5-cyano-6-(4-{[(4-fluorobenzyl)sulfonyl]carbamoyl}piperidin-1-yl)-2-[(2-oxopyrrolidin-1-yl)methyl]nicotinate], the half-maximal inhibitory concentration (IC50) came to 0.023 µM.

Turning to `CC(C)OC(=O)c1cc(C#N)c(N2CCC(C(=O)NS(=O)(=O)Cc3ccc(Cl)cc3F)CC2)nc1CN1CCCC1=O` [Example 52, Isopropyl 6-(4-{[(4-chloro-2-fluorobenzyl)sulfonyl]carbamoyl}piperidin-1-yl)-5-cyano-2-[(2-oxopyrrolidin-1-yl)methyl]nicotinate], the IC50 was determined as 0.014 µM.

On to `CC(C)OC(=O)c1cc(C#N)c(N2CCC(C(=O)NS(=O)(=O)Cc3ccc(Cl)cc3Cl)CC2)nc1CN1CCCC1=O` [Example 53, Isopropyl 5-cyano-6-(4-{[(2,4-dichlorobenzyl)sulfonyl]carbamoyl}piperidin-1-yl)-2-[(2-oxopyrrolidin-1-yl)methyl]nicotinate], for which the IC50 was determined as 0.032 µM.

For `CC1CCC(CS(=O)(=O)NC(=O)C2CCN(c3nc(CN4CCCC4=O)c(C(=O)OC(C)C)cc3C#N)CC2)CC1` (centres unmarked) [Example 54, Isopropyl 5-cyano-6-[4-({[(4-methylcyclohexyl)methyl]sulfonyl}carbamoyl)piperidin-1-yl]-2-[(2-oxopyrrolidin-1-yl)methyl]nicotinate], the IC50 worked out at 0.104 µM.

For the compound `CCOC(=O)c1cc(C#N)c(N2CCC(C(=O)NS(=O)(=O)Nc3ccccc3)CC2)nc1CN1CCCC1=O` [Example 55, Ethyl 6-{4-[(anilinosulfonyl)carbamoyl]piperidin-1-yl}-5-cyano-2-[(2-oxopyrrolidin-1-yl)methyl]nicotinate], the IC50 was found to be 0.03 µM.
